Source: paper PMC4850510 (ACS Central Science, 2016)

Columns and labels:
CBS = conditions: read-out: IC50 for CBS; cited from earlier work
GABA AT = GABA AT (Rattus norvegicus, UniProt P50554); assay: GABA transaminase; assay type: biochemical
Chain of GABA AT (P50554 28-500): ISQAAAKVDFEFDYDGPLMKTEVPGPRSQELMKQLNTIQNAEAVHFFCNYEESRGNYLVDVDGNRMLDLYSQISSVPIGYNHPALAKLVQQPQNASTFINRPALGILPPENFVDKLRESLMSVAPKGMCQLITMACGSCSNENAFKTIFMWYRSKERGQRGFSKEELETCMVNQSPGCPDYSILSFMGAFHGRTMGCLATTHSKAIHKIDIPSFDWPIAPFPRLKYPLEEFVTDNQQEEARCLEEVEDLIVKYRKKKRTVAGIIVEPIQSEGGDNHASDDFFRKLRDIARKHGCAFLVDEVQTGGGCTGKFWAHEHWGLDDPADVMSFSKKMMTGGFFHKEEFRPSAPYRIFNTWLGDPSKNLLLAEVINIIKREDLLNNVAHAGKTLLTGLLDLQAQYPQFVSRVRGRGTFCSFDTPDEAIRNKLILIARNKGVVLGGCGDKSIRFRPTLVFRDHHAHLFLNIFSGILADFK

Question: What does the source list for `NOCC(=O)O` [AOAA, aminooxyacetic acid]?
Answer: IC50 (CBS): ~12 µM; fold better inhibitor of GABA AT than of CBS (GABA AT; IC50 GABA AT vs IC50 CBS): 33 fold; IC50 (GABA AT; read-out: IC50 for GABA AT, rat brain homogenate): ~0.36 µM
